Our source for the Kd values is BindingDB's records for patent US20250213571 (Alumis, 2025).

One may read the Kd as the free concentration of one partner at which half of the binding sites on the other are occupied at equilibrium, for simple one-to-one binding. High values mean weaker binding, low ones tighter binding.

The test concerns the target T1, Non-receptor tyrosine-protein kinase TYK2 [556-888] (Homo sapiens, UniProt P29597).
T1 construct: 556-888
The experiment in a line: TYK2 JH2 Domain Binding Assay. As to the method: Binding constants for the compounds described herein against the JH2 domain were determined by the following protocol for a KINOMEscan assay (DiscoveRx). A fusion protein of a partial length construct of human TYK2 (JH2domain-pseudokinase) (amino acids G556 to D888 based on reference sequence NP_003322.3) and the DNA binding domain of NFkB was expressed in transiently transfected HEK293 cells. From these HEK 293 cells, extracts were prepared in M-PER extraction buffer (Pierce) in the presence of Protease Inhibitor Cocktail Complete (Roche) and Phosphatase Inhibitor Cocktail Set II (Merck) per manufacturers' instructions. The TYK2 (JH2domain-pseudokinase) fusion protein was labeled with a chimeric double-stranded DNA tag containing the NFkB binding site fused to an amplicon for qPCR readout, which was added directly to the expression extract (the final concentration of DNA-tag in the binding reaction is 0.1 nM).

SMILES strings stand for the structures.

T1 sequence (P29597 556-888): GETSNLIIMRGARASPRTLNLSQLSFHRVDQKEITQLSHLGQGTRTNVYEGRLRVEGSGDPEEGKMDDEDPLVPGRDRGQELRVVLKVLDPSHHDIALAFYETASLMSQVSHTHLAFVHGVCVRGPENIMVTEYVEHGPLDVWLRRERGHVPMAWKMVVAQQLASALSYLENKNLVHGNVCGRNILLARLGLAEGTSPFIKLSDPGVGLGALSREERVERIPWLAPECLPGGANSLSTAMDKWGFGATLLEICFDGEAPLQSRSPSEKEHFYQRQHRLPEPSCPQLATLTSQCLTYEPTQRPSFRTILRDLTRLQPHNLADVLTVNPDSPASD

`CNc1cc2nn3c(cnc13)C(=O)N[C@H](C)COCc1cc(c3c(c1)ncn3C)N2` [US20250213571, Compound 8] had a Kd of under 10 nM.
